What was measured:
[1] = target: ABL1 (T315I)-phosphorylated (Homo sapiens, UniProt P00519, T315I); assay: Kinase profiling; assay type: binding; conditions: read-out: % Ctrl @ 1000 nM
[2] = target: PRKX (Homo sapiens, UniProt P51817); assay: Kinase profiling; assay type: binding; conditions: read-out: % Ctrl @ 1000 nM
[3] = target: CSNK1A1L (Homo sapiens, UniProt Q8N752); assay: Kinase profiling; assay type: binding; conditions: read-out: % Ctrl @ 1000 nM
[4] = target: PIK3CB (Homo sapiens, UniProt P42338); assay: Kinase profiling; assay type: binding; conditions: read-out: % Ctrl @ 1000 nM
[5] = target: LOK (Homo sapiens, UniProt O94804); assay: Kinase profiling; assay type: binding; conditions: read-out: % Ctrl @ 1000 nM
[6] = test system: CD8 (T cell surface marker); assay: CD8 IHC test in MC-38 tumor; assay type: in vivo, mouse; conditions: MC-38 tumors; vs vehicle group
Method: MC38 tumor tissues were collected at the end of the in vivo efficacy trial. The tumor tissue was then embedded in paraffin. The expression of CD3/CD4/CD8/F4-80 were tested by immunohistochemistry stain.

[7] = target: T1, MLK1 (Homo sapiens, UniProt P80192); assay: Kinase profiling; assay type: binding; conditions: read-out: % Ctrl @ 1000 nM
T1 construct: T7 phage fusion (stated for most kinases of the panel only); made in house; host or cells: T7 phage in E. coli (BL21-derived) or HEK-293 cells

[8] = target: EPHA7 (Homo sapiens, UniProt Q15375); assay: Kinase profiling; assay type: binding; conditions: read-out: % Ctrl @ 1000 nM
[9] = target: EGFR (E746-A750del) (Homo sapiens, UniProt P00533, DEL746-750); assay: Kinase profiling; assay type: binding; conditions: read-out: % Ctrl @ 1000 nM
[10] = target: YANK3 (Homo sapiens, UniProt Q86UX6); assay: Kinase profiling; assay type: binding; conditions: read-out: % Ctrl @ 1000 nM
[11] = target: T2, NEK3 (Homo sapiens, UniProt P51956); assay: Kinase profiling; assay type: binding; conditions: read-out: % Ctrl @ 1000 nM
T2 construct: T7 phage fusion (said for most assays); made in house

[12] = target: T3, MEK4 (Homo sapiens, UniProt P45985); assay: Kinase profiling; assay type: binding; conditions: read-out: % Ctrl @ 1000 nM
T3 construct: T7 phage fusion (stated for most kinases of the panel only); made in house; host or cells: T7 phage in E. coli (BL21-derived) or HEK-293 cells

[13] = target: RSK1 (Kin.Dom.1-N-terminal) (Homo sapiens, UniProt Q15418); assay: Kinase profiling; assay type: binding; conditions: read-out: % Ctrl @ 1000 nM
[14] = target: IKK-alpha (Homo sapiens, UniProt O15111); assay: Kinase profiling; assay type: binding; conditions: read-out: % Ctrl @ 1000 nM
[15] = target: EPHA3 (Homo sapiens, UniProt P29320); assay: Kinase profiling; assay type: binding; conditions: read-out: % Ctrl @ 1000 nM
[16] = target: PFPK5 (P.falciparum) (Plasmodium falciparum, UniProt P61075); assay: Kinase profiling; assay type: binding; conditions: read-out: % Ctrl @ 1000 nM
[17] = target: CAMK1D (Homo sapiens, UniProt Q8IU85); assay: Kinase profiling; assay type: binding; conditions: read-out: % Ctrl @ 1000 nM
[18] = target: T4, MRCKB (Homo sapiens, UniProt Q9Y5S2); assay: Kinase profiling; assay type: binding; conditions: read-out: % Ctrl @ 1000 nM
T4 construct: T7 phage fusion (stated for most kinases of the panel only); made in house; host or cells: T7 phage in E. coli (BL21-derived) or HEK-293 cells

[19] = target: ALK (Homo sapiens, UniProt Q9UM73); assay: Kinase profiling; assay type: binding; conditions: read-out: % Ctrl @ 1000 nM
[20] = target: PIKFYVE (Homo sapiens, UniProt Q9Y2I7); assay: Kinase profiling; assay type: binding; conditions: read-out: % Ctrl @ 1000 nM
[21] = target: ANKK1 (Homo sapiens, UniProt Q8NFD2); assay: Kinase profiling; assay type: binding; conditions: read-out: % Ctrl @ 1000 nM
[22] = target: ACVR1B (Homo sapiens, UniProt P36896); assay: Kinase profiling; assay type: binding; conditions: read-out: % Ctrl @ 1000 nM
[23] = target: BLK (Homo sapiens, UniProt P51451); assay: Kinase profiling; assay type: binding; conditions: read-out: % Ctrl @ 1000 nM
[24] = target: AMPK-alpha2 (Homo sapiens, UniProt P54646); assay: Kinase profiling; assay type: binding; conditions: read-out: % Ctrl @ 1000 nM
[25] = target: ERK8 (Homo sapiens, UniProt Q8TD08); assay: Kinase profiling; assay type: binding; conditions: read-out: % Ctrl @ 1000 nM
[26] = target: PIK3CA (M1043I) (Homo sapiens, UniProt P42336, M1043I); assay: Kinase profiling; assay type: binding; conditions: read-out: % Ctrl @ 1000 nM
[27] = target: PIP5K2B (Homo sapiens, UniProt P78356); assay: Kinase profiling; assay type: binding; conditions: read-out: % Ctrl @ 1000 nM
[28] = target: TAK1 (Homo sapiens, UniProt O43318); assay: Kinase profiling; assay type: binding; conditions: read-out: % Ctrl @ 1000 nM
[29] = target: T5, MEK5 (Homo sapiens, UniProt Q13163); assay: Kinase profiling; assay type: binding; conditions: read-out: % Ctrl @ 1000 nM
T5 construct: T7 phage fusion (stated for most kinases of the panel only); made in house; host or cells: T7 phage in E. coli (BL21-derived) or HEK-293 cells

[30] = target: KIT (D816V) (Homo sapiens, UniProt P10721, D816V); assay: Kinase profiling; assay type: binding; conditions: read-out: % Ctrl @ 1000 nM
[31] = target: JAK2 (JH1domain-catalytic) (Homo sapiens, UniProt O60674); assay: Kinase profiling; assay type: binding; conditions: read-out: % Ctrl @ 1000 nM
[32] = target: TAOK3 (Homo sapiens, UniProt Q9H2K8); assay: Kinase profiling; assay type: binding; conditions: read-out: % Ctrl @ 1000 nM
[33] = target: PFCDPK1 (P.falciparum) (Plasmodium falciparum, UniProt P62344); assay: Kinase profiling; assay type: binding; conditions: read-out: % Ctrl @ 1000 nM
[34] = target: CSNK1G2 (Homo sapiens, UniProt P78368); assay: Kinase profiling; assay type: binding; conditions: read-out: % Ctrl @ 1000 nM
[35] = target: PKNB (M.tuberculosis) (Mycobacterium tuberculosis, UniProt P9WI81); assay: Kinase profiling; assay type: binding; conditions: read-out: % Ctrl @ 1000 nM
[36] = target: CASK (Homo sapiens, UniProt O14936); assay: Kinase profiling; assay type: binding; conditions: read-out: % Ctrl @ 1000 nM
[37] = target: PCTK2 (Homo sapiens, UniProt Q00537); assay: Kinase profiling; assay type: binding; conditions: read-out: % Ctrl @ 1000 nM
PCTK2, sequence (Q00537 whole entry): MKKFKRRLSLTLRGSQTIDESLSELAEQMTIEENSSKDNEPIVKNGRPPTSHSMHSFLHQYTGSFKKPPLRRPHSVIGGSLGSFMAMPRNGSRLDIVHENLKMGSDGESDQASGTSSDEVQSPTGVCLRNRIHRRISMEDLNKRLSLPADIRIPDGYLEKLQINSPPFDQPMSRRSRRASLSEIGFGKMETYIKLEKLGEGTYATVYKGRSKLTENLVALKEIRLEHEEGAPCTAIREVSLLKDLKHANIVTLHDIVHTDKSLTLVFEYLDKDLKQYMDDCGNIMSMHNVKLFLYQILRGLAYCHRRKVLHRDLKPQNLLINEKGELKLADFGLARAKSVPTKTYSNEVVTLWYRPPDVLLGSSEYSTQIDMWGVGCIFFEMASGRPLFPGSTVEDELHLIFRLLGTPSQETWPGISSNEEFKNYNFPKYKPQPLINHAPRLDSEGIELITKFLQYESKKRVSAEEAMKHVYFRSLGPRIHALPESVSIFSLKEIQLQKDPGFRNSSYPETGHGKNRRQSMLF

JAK2 (JH1domain-catalytic), sequence (O60674 849-1124 limits assumed): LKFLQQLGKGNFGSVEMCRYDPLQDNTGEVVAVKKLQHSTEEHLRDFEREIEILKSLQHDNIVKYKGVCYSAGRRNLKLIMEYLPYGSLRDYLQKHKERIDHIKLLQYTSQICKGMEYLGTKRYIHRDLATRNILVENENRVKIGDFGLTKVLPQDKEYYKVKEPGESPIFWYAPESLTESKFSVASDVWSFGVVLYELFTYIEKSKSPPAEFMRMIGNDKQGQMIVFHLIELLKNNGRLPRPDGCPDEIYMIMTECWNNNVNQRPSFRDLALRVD
YANK3, sequence (Q86UX6 whole entry): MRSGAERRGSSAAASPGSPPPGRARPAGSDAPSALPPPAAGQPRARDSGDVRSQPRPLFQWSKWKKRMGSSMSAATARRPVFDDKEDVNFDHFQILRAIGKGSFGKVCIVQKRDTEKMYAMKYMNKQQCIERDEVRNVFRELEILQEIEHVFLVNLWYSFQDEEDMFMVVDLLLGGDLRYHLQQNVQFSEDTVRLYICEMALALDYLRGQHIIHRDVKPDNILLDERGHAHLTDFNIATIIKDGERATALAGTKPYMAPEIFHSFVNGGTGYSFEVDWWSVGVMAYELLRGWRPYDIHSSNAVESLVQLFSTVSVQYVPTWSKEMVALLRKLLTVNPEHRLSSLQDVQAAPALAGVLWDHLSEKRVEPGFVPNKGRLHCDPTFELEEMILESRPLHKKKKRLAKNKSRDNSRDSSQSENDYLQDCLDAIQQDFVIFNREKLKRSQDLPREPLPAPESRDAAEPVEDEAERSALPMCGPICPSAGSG
T5 sequence (Q13163 whole entry, the tested form may be a part): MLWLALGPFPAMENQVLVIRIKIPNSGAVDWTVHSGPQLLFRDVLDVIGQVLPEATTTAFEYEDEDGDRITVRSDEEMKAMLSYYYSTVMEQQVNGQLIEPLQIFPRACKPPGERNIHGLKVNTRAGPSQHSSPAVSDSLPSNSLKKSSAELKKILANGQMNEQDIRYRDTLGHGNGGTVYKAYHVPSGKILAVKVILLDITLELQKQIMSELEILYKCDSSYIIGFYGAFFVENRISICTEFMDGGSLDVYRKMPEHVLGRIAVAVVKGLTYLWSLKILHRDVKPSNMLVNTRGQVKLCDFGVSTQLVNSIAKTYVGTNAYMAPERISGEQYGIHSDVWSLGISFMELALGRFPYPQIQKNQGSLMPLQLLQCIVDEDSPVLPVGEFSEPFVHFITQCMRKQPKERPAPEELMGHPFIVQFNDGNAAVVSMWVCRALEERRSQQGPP
RSK1 (Kin.Dom.1-N-terminal), sequence (Q15418 62-321 limits assumed): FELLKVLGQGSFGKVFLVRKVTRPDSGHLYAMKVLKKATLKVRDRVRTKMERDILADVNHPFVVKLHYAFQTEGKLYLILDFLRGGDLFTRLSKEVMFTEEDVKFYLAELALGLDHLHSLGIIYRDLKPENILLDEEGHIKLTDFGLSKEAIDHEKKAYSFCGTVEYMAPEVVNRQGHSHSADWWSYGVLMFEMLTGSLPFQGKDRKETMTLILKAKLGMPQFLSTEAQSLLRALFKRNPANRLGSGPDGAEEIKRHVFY
IKK-alpha, sequence (O15111 whole entry): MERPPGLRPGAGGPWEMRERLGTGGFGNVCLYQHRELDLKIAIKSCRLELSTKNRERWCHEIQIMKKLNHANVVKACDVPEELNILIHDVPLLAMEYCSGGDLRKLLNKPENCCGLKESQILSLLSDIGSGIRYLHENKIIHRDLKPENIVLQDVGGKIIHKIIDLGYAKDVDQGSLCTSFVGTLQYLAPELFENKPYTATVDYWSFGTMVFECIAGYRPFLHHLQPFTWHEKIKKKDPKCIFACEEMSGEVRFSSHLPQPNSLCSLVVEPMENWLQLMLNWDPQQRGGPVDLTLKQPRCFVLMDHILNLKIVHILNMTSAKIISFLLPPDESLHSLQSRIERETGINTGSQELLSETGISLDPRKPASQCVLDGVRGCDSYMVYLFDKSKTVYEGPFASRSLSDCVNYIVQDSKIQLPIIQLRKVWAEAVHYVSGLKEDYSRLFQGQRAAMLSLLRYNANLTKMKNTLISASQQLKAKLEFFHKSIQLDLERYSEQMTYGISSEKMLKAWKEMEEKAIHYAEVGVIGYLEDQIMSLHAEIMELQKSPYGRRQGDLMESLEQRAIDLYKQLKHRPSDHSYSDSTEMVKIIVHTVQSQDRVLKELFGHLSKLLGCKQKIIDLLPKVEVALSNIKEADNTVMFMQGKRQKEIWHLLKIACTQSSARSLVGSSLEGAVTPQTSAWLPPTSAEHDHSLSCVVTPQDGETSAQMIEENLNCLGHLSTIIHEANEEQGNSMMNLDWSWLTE
TAK1, sequence (O43318 whole entry): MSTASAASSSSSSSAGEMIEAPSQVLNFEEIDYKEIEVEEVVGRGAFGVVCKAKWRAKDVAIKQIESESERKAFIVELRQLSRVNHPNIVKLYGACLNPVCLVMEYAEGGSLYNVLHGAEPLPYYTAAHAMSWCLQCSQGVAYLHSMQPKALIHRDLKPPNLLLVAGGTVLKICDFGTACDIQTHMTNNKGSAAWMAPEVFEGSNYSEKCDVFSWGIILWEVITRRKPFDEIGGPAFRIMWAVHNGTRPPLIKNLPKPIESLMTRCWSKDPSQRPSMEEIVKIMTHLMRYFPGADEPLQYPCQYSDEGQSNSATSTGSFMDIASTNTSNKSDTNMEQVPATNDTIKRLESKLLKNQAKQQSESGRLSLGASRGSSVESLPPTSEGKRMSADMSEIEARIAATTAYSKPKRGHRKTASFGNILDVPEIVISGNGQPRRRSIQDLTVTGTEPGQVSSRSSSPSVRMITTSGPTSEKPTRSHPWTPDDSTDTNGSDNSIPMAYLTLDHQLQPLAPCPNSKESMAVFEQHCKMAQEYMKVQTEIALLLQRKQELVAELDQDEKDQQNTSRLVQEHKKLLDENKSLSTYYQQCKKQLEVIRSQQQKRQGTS
EPHA7, sequence (Q15375 28-998): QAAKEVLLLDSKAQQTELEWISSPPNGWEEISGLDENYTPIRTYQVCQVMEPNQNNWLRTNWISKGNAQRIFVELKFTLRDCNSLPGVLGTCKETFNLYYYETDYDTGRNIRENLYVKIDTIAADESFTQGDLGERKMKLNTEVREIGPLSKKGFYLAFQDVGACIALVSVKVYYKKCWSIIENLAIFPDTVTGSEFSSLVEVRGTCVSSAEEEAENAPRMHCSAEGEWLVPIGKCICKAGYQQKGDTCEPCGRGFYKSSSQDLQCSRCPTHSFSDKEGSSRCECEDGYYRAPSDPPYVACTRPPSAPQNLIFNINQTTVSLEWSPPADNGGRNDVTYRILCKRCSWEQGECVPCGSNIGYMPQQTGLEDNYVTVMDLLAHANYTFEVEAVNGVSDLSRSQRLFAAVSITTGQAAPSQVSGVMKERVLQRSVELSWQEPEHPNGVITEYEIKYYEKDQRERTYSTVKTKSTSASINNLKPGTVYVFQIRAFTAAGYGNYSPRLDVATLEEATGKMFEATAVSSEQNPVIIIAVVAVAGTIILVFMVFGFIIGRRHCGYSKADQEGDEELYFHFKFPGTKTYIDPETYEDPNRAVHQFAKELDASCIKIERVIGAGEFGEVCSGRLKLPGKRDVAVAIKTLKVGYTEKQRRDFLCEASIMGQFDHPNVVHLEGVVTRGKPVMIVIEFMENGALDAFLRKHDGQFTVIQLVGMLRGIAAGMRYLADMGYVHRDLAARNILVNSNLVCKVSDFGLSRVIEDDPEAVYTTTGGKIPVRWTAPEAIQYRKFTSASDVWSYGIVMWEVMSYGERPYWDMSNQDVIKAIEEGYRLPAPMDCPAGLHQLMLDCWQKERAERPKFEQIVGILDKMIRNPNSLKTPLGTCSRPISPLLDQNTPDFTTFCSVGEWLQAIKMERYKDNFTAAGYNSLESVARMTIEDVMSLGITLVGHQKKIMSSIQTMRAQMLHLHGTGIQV
PFCDPK1 (P.falciparum), sequence (P62344 whole entry): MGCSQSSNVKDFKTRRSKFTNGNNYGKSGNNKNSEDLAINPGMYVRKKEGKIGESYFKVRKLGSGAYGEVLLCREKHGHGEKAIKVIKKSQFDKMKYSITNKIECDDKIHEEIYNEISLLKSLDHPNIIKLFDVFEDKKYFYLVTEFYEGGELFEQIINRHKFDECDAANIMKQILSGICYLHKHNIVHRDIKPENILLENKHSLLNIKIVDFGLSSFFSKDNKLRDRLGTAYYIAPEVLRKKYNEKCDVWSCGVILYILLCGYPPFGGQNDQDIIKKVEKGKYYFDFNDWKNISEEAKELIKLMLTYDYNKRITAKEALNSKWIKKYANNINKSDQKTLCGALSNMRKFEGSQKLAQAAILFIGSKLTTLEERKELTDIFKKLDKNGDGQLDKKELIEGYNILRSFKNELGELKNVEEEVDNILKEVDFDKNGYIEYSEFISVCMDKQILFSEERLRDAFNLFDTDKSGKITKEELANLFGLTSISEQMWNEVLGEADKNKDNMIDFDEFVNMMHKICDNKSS

Cc1cc(Oc2cc(NC(=O)C3CC3)ncn2)ccc1NC(=O)Nc1ccc(Cl)c(C(F)(F)F)c1 [CBT-102]
remaining activity at 1 µM [1]: 51%
remaining activity at 1 µM [2]: 93%
remaining activity at 1 µM [3]: 100%
remaining activity at 1 µM [4]: 100%
remaining activity at 1 µM [5]: 0.1%
effect on T cell surface marker CD8 (IHC) [6]: no significant effect
remaining activity at 1 µM [7]: 94%
remaining activity at 1 µM [8]: 4.1%
remaining activity at 1 µM [9]: 95%
remaining activity at 1 µM [10]: 88%
remaining activity at 1 µM [11]: 100%
remaining activity at 1 µM [12]: 100%
remaining activity at 1 µM [13]: 100%
remaining activity at 1 µM [14]: 93%
remaining activity at 1 µM [15]: 33%
remaining activity at 1 µM [16]: 100%
remaining activity at 1 µM [17]: 81%
remaining activity at 1 µM [18]: 100%
remaining activity at 1 µM [19]: 100%
remaining activity at 1 µM [20]: 91%
remaining activity at 1 µM [21]: 100%
remaining activity at 1 µM [22]: 100%
remaining activity at 1 µM [23]: 48%
remaining activity at 1 µM [24]: 100%
remaining activity at 1 µM [25]: 0.6%
remaining activity at 1 µM [26]: 100%
remaining activity at 1 µM [27]: 99%
remaining activity at 1 µM [28]: 12%
remaining activity at 1 µM [29]: 6.2%
remaining activity at 1 µM [30]: 18%
remaining activity at 1 µM [31]: 100%
remaining activity at 1 µM [32]: 9.6%
remaining activity at 1 µM [33]: 53%
remaining activity at 1 µM [34]: 94%
remaining activity at 1 µM [35]: 100%
remaining activity at 1 µM [36]: 98%
remaining activity at 1 µM [37]: 44%

— patent US20220088016A1, “CANCER TREATMENT USING MULTI-TARGETED KINASE INHIBITOR IN COMBINATION OF PROTEIN KINASE BIOMARKERS” (ZHEJIANG CROWNMAB BIOTECH CO. LTD., priority 2019, published 2022)
